The MIC is the least concentration at which growth counts as inhibited. Higher therefore signals weaker potency.

Each structure is given as a SMILES string. In brackets after ≈: the same amount, converted by molar mass.

Experimental findings from patent publication US8889676B2, “3-ureidoisoquinolin-8-yl derivatives” (Actelion Pharmaceuticals Ltd., priority 2011, dated 2014) are described below.

In this assay the test system is S. pneumoniae ATCC 49619. Nature of the assay: Minimal inhibitory concentration (MIC) by broth microdilution (CLSI M7-A7). The assay is classed as cell-based, Streptococcus pneumoniae. As to conditions: Streptococcus pneumoniae, ATCC49619; cation-adjusted Mueller Hinton Broth supplemented with 3% (v/v) lysed horse blood; microdilution method. The protocol: Minimal inhibitory concentrations (MICs; mg/l) were determined in cation-adjusted MuellerHinton Broth (supplemented with 3% (v/v) lysed horse blood for testing Streptococcus pneumoniae) by a microdilution method following the description given in “Methods for Dilution Antimicrobial Susceptibility Tests for Bacteria that Grow Aerobically”, Approved standard, 7th ed., a Clinical and Laboratory Standards Institute (CLSI) Document M7-A7, Wayne, Pa., USA, 2006.
The molecule `CCNC(=O)Nc1cc2c(-c3ccncc3)ccc(CNC(=O)OCC(O)CO)c2cn1.Cl` (racemic) [Example 103, (±)-[3-(3-ethyl-ureido)-5-pyridin-4-yl-isoquinolin-8-ylmethyl]-carbamic acid 2,3-dihydroxy-propyl ester hydrochloride] returned an MIC of 4 µg/mL. The result for `C#CC(C)OC(=O)NCc1ccc(-c2ccncc2)c2cc(NC(=O)NCC)ncc12` (racemic) [Example 108, (±)-[3-(3-ethyl-ureido)-5-pyridin-4-yl-isoquinolin-8-ylmethyl]-carbamic acid 1-methyl-prop-2-ynyl ester] reads 0.25 µg/mL (≈ 0.599 µM).

Take `C#CCC(=O)NCc1cccc2cc(NC(=O)NCC)ncc12` [Example 1, but-3-ynoic acid [3-(3-ethyl-ureido)-isoquinolin-8-ylmethyl]-amide]: the MIC was 2 µg/mL (≈ 6.44 µM). The result for `CCNC(=O)Nc1cc2cccc(CNC(=O)c3ccncc3)c2cn1` [Example 2, N-[3-(3-ethyl-ureido)-isoquinolin-8-ylmethyl]-isonicotinamide] reads 2 µg/mL (≈ 5.72 µM); that for `CCNC(=O)Nc1cc2cccc(CNC(C)=O)c2cn1` [Example 3, N-[3-(3-ethyl-ureido)-isoquinolin-8-ylmethyl]-acetamide], 4 µg/mL (≈ 14 µM). The value for `CCNC(=O)Nc1cc2cccc(CNC(=O)c3ccccc3)c2cn1` [Example 4, N-[3-(3-ethyl-ureido)-isoquinolin-8-ylmethyl]-benzamide] was 2 µg/mL (≈ 5.74 µM); that for `CCNC(=O)Nc1cc2cccc(CNC(=O)CC#N)c2cn1` [Example 5, 2-cyano-N-[3-(3-ethyl-ureido)-isoquinolin-8-ylmethyl]-acetamide] was 4 µg/mL (≈ 12.8 µM); that for `CCNC(=O)Nc1cc2cccc(CNC(=O)C3CCCCC3)c2cn1` [Example 6, cyclohexanecarboxylic acid [3-(3-ethyl-ureido)-isoquinolin-8-ylmethyl]-amide] was 4 µg/mL (≈ 11.3 µM). The result for `CCNC(=O)Nc1cc2cccc(CNC(=O)CC3CC3)c2cn1` [Example 7, 2-cyclopropyl-N-[3-(3-ethyl-ureido)-isoquinolin-8-ylmethyl]-acetamide] reads 2 µg/mL (≈ 6.13 µM); that for `CCNC(=O)Nc1cc2cccc(CNC(=O)CNC(C)=O)c2cn1` [Example 8, 2-acetylamino-N-[3-(3-ethyl-ureido)-isoquinolin-8-ylmethyl]-acetamide], 8 µg/mL (≈ 23.3 µM).

In the case of `C#CC(=O)NCc1cccc2cc(NC(=O)NCC)ncc12` [Example 9, propynoic acid [3-(3-ethyl-ureido)-isoquinolin-8-ylmethyl]-amide], it took 2 µg/mL (≈ 6.75 µM) to inhibit growth (MIC). The value for `CCNC(=O)Nc1cc2cccc(CNC(=O)c3cccnc3)c2cn1` [Example 10, N-[3-(3-ethyl-ureido)-isoquinolin-8-ylmethyl]-nicotinamide] was 4 µg/mL (≈ 11.4 µM); that for `CCNC(=O)Nc1cc2cccc(CNC(=O)c3ccccn3)c2cn1` [Example 11, pyridine-2-carboxylic acid [3-(3-ethyl-ureido)-isoquinolin-8-ylmethyl]-amide] was 2 µg/mL (≈ 5.72 µM). The value for `CCNC(=O)Nc1cc2cccc(CNC(=O)Cc3ccccc3)c2cn1` [Example 12, N-[3-(3-ethyl-ureido)-isoquinolin-8-ylmethyl]-2-phenyl-acetamide] was 1 µg/mL (≈ 2.76 µM); that for `CCNC(=O)Nc1cc2cccc(CNC(=O)C3CC3)c2cn1` [Example 13, cyclopropanecarboxylic acid [3-(3-ethyl-ureido)-isoquinolin-8-ylmethyl]-amide] was 2 µg/mL (≈ 6.4 µM). With `CCNC(=O)Nc1cc2cccc(CNC(=O)C(C)(C)C)c2cn1` [Example 14, N-[3-(3-ethyl-ureido)-isoquinolin-8-ylmethyl]-2,2-dimethyl-propionamide], the lowest concentration to inhibit growth (MIC) was 4 µg/mL (≈ 12.2 µM). `CCNC(=O)Nc1cc2cccc(CNC(=O)COC)c2cn1` [Example 15, N-[3-(3-ethyl-ureido)-isoquinolin-8-ylmethyl]-2-methoxy-acetamide] gave an MIC of 4 µg/mL (≈ 12.6 µM). The value for `CCNC(=O)Nc1cc2cccc(CNC(=O)c3ncc[nH]3)c2cn1` [Example 16, 1H-imidazole-2-carboxylic acid [3-(3-ethyl-ureido)-isoquinolin-8-ylmethyl]-amide] was 4 µg/mL (≈ 11.8 µM); that for `C#CCCC(=O)NCc1cccc2cc(NC(=O)NCC)ncc12` [Example 17, pent-4-ynoic acid [3-(3-ethyl-ureido)-isoquinolin-8-ylmethyl]-amide] was 8 µg/mL (≈ 24.7 µM); that for `CCNC(=O)Nc1cc2cccc(CNC(=O)C(C)C)c2cn1` [Example 18, N-[3-(3-ethyl-ureido)-isoquinolin-8-ylmethyl]-isobutyramide] was 4 µg/mL (≈ 12.7 µM). The value for `CCNC(=O)Nc1cc2cccc(CNC(=O)CN(C)C)c2cn1` [Example 19, 2-dimethylamino-N-[3-(3-ethyl-ureido)-isoquinolin-8-ylmethyl]-acetamide] was 8 µg/mL (≈ 24.3 µM); that for `CCNC(=O)Nc1cc2cccc(CNC(=O)c3cn[nH]n3)c2cn1` [Example 20, 2H-[1,2,3]triazole-4-carboxylic acid [3-(3-ethyl-ureido)-isoquinolin-8-ylmethyl]-amide] was 1 µg/mL (≈ 2.95 µM); that for `CCNC(=O)Nc1cc2cccc(CNC(=O)CCC(N)=O)c2cn1` [Example 21, N-[3-(3-ethyl-ureido)-isoquinolin-8-ylmethyl]-succinamide] was 8 µg/mL (≈ 23.3 µM).

Molecule `CCNC(=O)Nc1cc2cccc(CNC(=O)c3cncn3C)c2cn1` [Example 22, 3-methyl-3H-imidazole-4-carboxylic acid [3-(3-ethyl-ureido)-isoquinolin-8-ylmethyl]-amide] returned an MIC of 4 µg/mL (≈ 11.4 µM).

Molecule `CCNC(=O)Nc1cc2c(-c3ccncc3)ccc(CNC(=O)c3cccnc3)c2cn1` [Example 23, N-[3-(3-ethyl-ureido)-5-pyridin-4-yl-isoquinolin-8-ylmethyl]-nicotinamide] had an MIC of 1 µg/mL (≈ 2.34 µM). Compared with the last molecule, the MIC is about 4-fold lower. The value for `CCNC(=O)Nc1cc2cccc(CNC(=O)OCC)c2cn1.Cl` [Example 24, [3-(3-ethyl-ureido)-isoquinolin-8-ylmethyl]-carbamic acid ethyl ester hydrochloride] was 4 µg/mL; that for `CCNC(=O)Nc1cc2cccc(CNC(=O)OCc3ccncc3)c2cn1.Cl` [Example 25, [3-(3-ethyl-ureido)-isoquinolin-8-ylmethyl]-carbamic acid pyridin-4-ylmethyl ester hydrochloride] was 2 µg/mL. The value for `CCNC(=O)Nc1cc2cccc(CNC(=O)OCc3cncnc3)c2cn1.Cl` [Example 26, [3-(3-ethyl-ureido)-isoquinolin-8-ylmethyl]-carbamic acid pyrimidin-5-ylmethyl ester hydrochloride] was 4 µg/mL.

In turn, `CCNC(=O)Nc1cc2cccc(CNC(=O)OCCF)c2cn1.Cl` [Example 27, [3-(3-ethyl-ureido)-isoquinolin-8-ylmethyl]-carbamic acid 2-fluoro-ethyl ester hydrochloride] yielded an MIC of 4 µg/mL. The result for `CCNC(=O)Nc1cc2cccc(CNC(=O)OCC3CC3)c2cn1.Cl` [Example 28, [3-(3-ethyl-ureido)-isoquinolin-8-ylmethyl]-carbamic acid cyclopropylmethyl ester hydrochloride] reads 4 µg/mL; that for `CCNC(=O)Nc1cc2cccc(CNC(=O)OCc3ccncn3)c2cn1.Cl` [Example 29, [3-(3-ethyl-ureido)-isoquinolin-8-ylmethyl]-carbamic acid pyrimidin-4-ylmethyl ester hydrochloride], 4 µg/mL; that for `CCNC(=O)Nc1cc2cccc(CNC(=O)OC(C)C)c2cn1.Cl` [Example 30, [3-(3-ethyl-ureido)-isoquinolin-8-ylmethyl]-carbamic acid isopropyl ester hydrochloride], 4 µg/mL. The molecule `C#CCOC(=O)NCc1cccc2cc(NC(=O)NCC)ncc12.Cl` [Example 31, [3-(3-ethyl-ureido)-isoquinolin-8-ylmethyl]-carbamic acid prop-2-ynyl ester hydrochloride] had an MIC of 2 µg/mL. Molecule `CCNC(=O)Nc1cc2cccc(CNC(=O)OCCC#N)c2cn1.Cl` [Example 32, [3-(3-ethyl-ureido)-isoquinolin-8-ylmethyl]-carbamic acid 2-cyano-ethyl ester hydrochloride] showed an MIC of 4 µg/mL.

As to `CCNC(=O)Nc1cc2cccc(CNC(=O)OCc3cccnc3)c2cn1.Cl` [Example 33, [3-(3-ethyl-ureido)-isoquinolin-8-ylmethyl]-carbamic acid pyridin-3-ylmethyl ester hydrochloride], 4 µg/mL was the least that counted as inhibitory (MIC).

The molecule `CCNC(=O)Nc1cc2cccc(CNC(=O)OCc3ccccn3)c2cn1.Cl` [Example 34, [3-(3-ethyl-ureido)-isoquinolin-8-ylmethyl]-carbamic acid pyridin-2-ylmethyl ester hydrochloride] displayed an MIC of 4 µg/mL.

Turning to `CCNC(=O)Nc1cc2cccc(CNC(=O)OCc3ccn(C)n3)c2cn1.Cl` [Example 35, [3-(3-ethyl-ureido)-isoquinolin-8-ylmethyl]-carbamic acid (1-methyl-1H-pyrazol-3-yl)methyl ester hydrochloride], it took 4 µg/mL to inhibit growth (MIC). The value for `CCNC(=O)Nc1cc2cccc(CNC(=O)OCc3ccccc3)c2cn1.Cl` [Example 36, [3-(3-ethyl-ureido)-isoquinolin-8-ylmethyl]-carbamic acid benzyl ester hydrochloride] was 4 µg/mL; that for `CCNC(=O)Nc1cc2cccc(CNC(=O)OCCOC)c2cn1.Cl` [Example 37, [3-(3-ethyl-ureido)-isoquinolin-8-ylmethyl]-carbamic acid 2-methoxy-ethyl ester hydrochloride] was 4 µg/mL. The value for `CCNC(=O)Nc1cc2cccc(CNC(=O)OCc3cncn3C)c2cn1.Cl` [Example 38, [3-(3-ethyl-ureido)-isoquinolin-8-ylmethyl]-carbamic acid 3-methyl-3H-imidazol-4-ylmethyl ester hydrochloride] was 8 µg/mL.
